Values joined by “and” are separate entries in the source; they are usually repeats but may differ in a detail not shown here. Equal entries are not always repeated.
System: 885512-296-R-J2-PDC complex spheroid growth, % test/control
Experiment: Anticancer human tumor 885512-296-R-J2-PDC patient-derived breast carcinoma cell line growth inhibition [Asc]
Conditions: for viability, T/C: stronger effect = lower value; active means viability on the fitted dose curve at most 10% of control; inactive means the rest
Outline: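 Stromal components (HUVEC and hMSC) are co-assembled with the cancer cells into multicellular spheroids. Drugs are then added singly or paired, at concentrations falling by half-log increments from a clinically achievable maximum, capped at 10 microM without known Cmax.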

[1] = curve of first compound, second compound 0.01 µM
[2] = curve of first compound, second compound 0.0316 µM
[3] = curve of first compound, second compound 0.1 µM
[4] = curve of first compound, second compound 0.316 µM
[5] = curve of first compound, second compound 1 µM
[6] = second compound 0.01 µM, first compound 0.00316 µM
[7] = second compound 0.01 µM, first compound 0.01 µM
[8] = second compound 0.01 µM, first compound 0.0316 µM
[9] = second compound 0.01 µM, first compound 0.1 µM
[10] = second compound 0.0316 µM, first compound 0.00316 µM
[11] = second compound 0.0316 µM, first compound 0.01 µM
[12] = second compound 0.0316 µM, first compound 0.0316 µM
[13] = second compound 0.0316 µM, first compound 0.1 µM
[14] = second compound 0.1 µM, first compound 0.00316 µM
[15] = second compound 0.1 µM, first compound 0.01 µM
[16] = second compound 0.1 µM, first compound 0.0316 µM
[17] = second compound 0.1 µM, first compound 0.1 µM
[18] = second compound 0.316 µM, first compound 0.00316 µM
[19] = second compound 0.316 µM, first compound 0.01 µM
[20] = second compound 0.316 µM, first compound 0.0316 µM
[21] = second compound 0.316 µM, first compound 0.1 µM
[22] = second compound 1 µM, first compound 0.00316 µM
[23] = second compound 1 µM, first compound 0.01 µM
[24] = second compound 1 µM, first compound 0.0316 µM
[25] = second compound 1 µM, first compound 0.1 µM
[26] = second compound 0.1 µM, first compound 0.00949 µM
[27] = second compound 0.1 µM, first compound 0.03 µM
[28] = second compound 0.1 µM, first compound 0.0949 µM
[29] = second compound 0.1 µM, first compound 0.3 µM
[30] = second compound 0.316 µM, first compound 0.00949 µM
[31] = second compound 0.316 µM, first compound 0.03 µM
[32] = second compound 0.316 µM, first compound 0.0949 µM
[33] = second compound 0.316 µM, first compound 0.3 µM
[34] = second compound 1 µM, first compound 0.00949 µM
[35] = second compound 1 µM, first compound 0.03 µM
[36] = second compound 1 µM, first compound 0.0949 µM
[37] = second compound 1 µM, first compound 0.3 µM
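Further: spheroids exposed to compounds for seven days.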
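Wherever viability, T/C is given: 100% = DMSO vehicle control wells.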

NC1CCC(NC2CC2c2ccccc2)CC1 (configuration not stated) + CNC(C)C(=O)NC1CN(S(=O)(=O)c2cccc(S(=O)(=O)N3CCC4CCC(C(=O)NC(c5ccccc5)c5ccccc5)N4C(=O)C(NC(=O)C(C)NC)C3)c2)CCC2CCC(C(=O)NC(c3ccccc3)c3ccccc3)N2C1=O
> 100 nM: IC50 [1] | IC50 [2] | IC50 [3] | IC50 [4] | IC50 [5]
inactive: viability, T/C (second compound 0.01 µM, first compound 0.000316 µM) 114% | viability, T/C (second compound 0.01 µM, first compound 0.001 µM) 116% | viability, T/C [6] 111% | viability, T/C [7] 105% | viability, T/C [8] 111% | viability, T/C [9] 113% | viability, T/C (second compound 0.0316 µM, first compound 0.000316 µM) 107% | viability, T/C (second compound 0.0316 µM, first compound 0.001 µM) 112% | viability, T/C [10] 107% | viability, T/C [11] 113% | viability, T/C [12] 110% | viability, T/C [13] 110% | viability, T/C (second compound 0.1 µM, first compound 0.000316 µM) 107% | viability, T/C (second compound 0.1 µM, first compound 0.001 µM) 91% | viability, T/C [14] 109% | viability, T/C [15] 106% | viability, T/C [16] 104% | viability, T/C [17] 111% | viability, T/C (second compound 0.316 µM, first compound 0.000316 µM) 108% | viability, T/C (second compound 0.316 µM, first compound 0.001 µM) 110% | viability, T/C [18] 112% | viability, T/C [19] 105% | viability, T/C [20] 108% | viability, T/C [21] 110% | viability, T/C (second compound 1 µM, first compound 0.000316 µM) 111% | viability, T/C (second compound 1 µM, first compound 0.001 µM) 104% | viability, T/C [22] 110% | viability, T/C [23] 98.6% | viability, T/C [24] 105% | viability, T/C [25] 109%

NC(=O)C(=Cn1cnc(-c2cc(C(F)(F)F)cc(C(F)(F)F)c2)n1)c1cncnc1 + Cc1c(S(C)(=O)=O)c(-c2cc(F)cc(N3CCN(c4ccc(NS(=O)(=O)c5ccc(NC(CCN6CCC(C(=O)OCCCP(=O)(O)O)CC6)CSc6ccccc6)c(S(=O)(=O)C(F)(F)F)c5)cc4)CC3)c2)c(-c2ccc(Cl)cc2)n1C(C)C
41.3 nM: IC50 (curve of first compound, second compound 3.16 µM)
active: viability, T/C [28] 4.49% | viability, T/C [29] 0.26% | viability, T/C [32] 4.42% | viability, T/C [33] 3.46% | viability, T/C [36] 3.77% | viability, T/C [37] 0.23% | viability, T/C (second compound 3.16 µM, first compound 0.0949 µM) 4.78% | viability, T/C (second compound 3.16 µM, first compound 0.3 µM) 0.2% | viability, T/C (second compound 10 µM, first compound 0.0949 µM) 2.71% | viability, T/C (second compound 10 µM, first compound 0.3 µM) 0.25%
46.1 nM: IC50 (curve of first compound, second compound 10 µM)
40.1 nM: IC50 [3]
38.9 nM: IC50 [4]
39.1 nM: IC50 [5]
inactive: viability, T/C (second compound 0.1 µM, first compound 0.000949 µM) 92.8% | viability, T/C (second compound 0.1 µM, first compound 0.003 µM) 74.5% | viability, T/C [26] 81.9% | viability, T/C [27] 65.5% | viability, T/C (second compound 0.316 µM, first compound 0.000949 µM) 75.8% | viability, T/C (second compound 0.316 µM, first compound 0.003 µM) 102% | viability, T/C [30] 83% | viability, T/C [31] 63.3% | viability, T/C (second compound 1 µM, first compound 0.000949 µM) 68.8% | viability, T/C (second compound 1 µM, first compound 0.003 µM) 89.2% | viability, T/C [34] 102% | viability, T/C [35] 64.4% | viability, T/C (second compound 3.16 µM, first compound 0.000949 µM) 92.9% | viability, T/C (second compound 3.16 µM, first compound 0.003 µM) 88.1% | viability, T/C (second compound 3.16 µM, first compound 0.00949 µM) 105% | viability, T/C (second compound 3.16 µM, first compound 0.03 µM) 67.9% | viability, T/C (second compound 10 µM, first compound 0.000949 µM) 117% | viability, T/C (second compound 10 µM, first compound 0.003 µM) 105% | viability, T/C (second compound 10 µM, first compound 0.00949 µM) 89.7% | viability, T/C (second compound 10 µM, first compound 0.03 µM) 78%

Cn1ncnc1[C@H]1c2n[nH]c(=O)c3cc(F)cc(c23)N[C@@H]1c1ccc(F)cc1
32.3 nM and 43.3 nM and 42.2 nM: IC50 (curve of compound)
inactive: viability, T/C (compound 0.000316 µM) 101% and 86.7% and 96.2% | viability, T/C (compound 0.001 µM) 86.5% and 84.3% and 90.5% | viability, T/C (compound 0.00316 µM) 71.1% and 82.5% and 93.2% | viability, T/C (compound 0.01 µM) 70.2% and 73% and 67.9% | viability, T/C (compound 0.0316 µM) 53.5% and 54.3% and 57.9% | viability, T/C (compound 0.1 µM) 31.4% and 38.2% and 34.5%

CCN1CCN(Cc2ccc(Nc3ncc(F)c(-c4cc(F)c5nc(C)n(C(C)C)c5c4)n3)nc2)CC1 + CNC(C)C(=O)NC1CN(S(=O)(=O)c2cccc(S(=O)(=O)N3CCC4CCC(C(=O)NC(c5ccccc5)c5ccccc5)N4C(=O)C(NC(=O)C(C)NC)C3)c2)CCC2CCC(C(=O)NC(c3ccccc3)c3ccccc3)N2C1=O
inactive: viability, T/C [6] 79.9% | viability, T/C [7] 104% | viability, T/C [8] 82.6% | viability, T/C [9] 56.7% | viability, T/C (second compound 0.01 µM, first compound 0.316 µM) 49.2% | viability, T/C (second compound 0.01 µM, first compound 1 µM) 26% | viability, T/C [10] 102% | viability, T/C [11] 106% | viability, T/C [12] 104% | viability, T/C [13] 82.6% | viability, T/C (second compound 0.0316 µM, first compound 0.316 µM) 71.6% | viability, T/C (second compound 0.0316 µM, first compound 1 µM) 49.9% | viability, T/C [14] 115% | viability, T/C [15] 107% | viability, T/C [16] 116% | viability, T/C [17] 91.4% | viability, T/C (second compound 0.1 µM, first compound 0.316 µM) 71.3% | viability, T/C (second compound 0.1 µM, first compound 1 µM) 42.7% | viability, T/C [18] 110% | viability, T/C [19] 112% | viability, T/C [20] 103% | viability, T/C [21] 90.8% | viability, T/C (second compound 0.316 µM, first compound 0.316 µM) 64.6% | viability, T/C (second compound 0.316 µM, first compound 1 µM) 50.3% | viability, T/C [22] 112% | viability, T/C [23] 112% | viability, T/C [24] 111% | viability, T/C [25] 87.5% | viability, T/C (second compound 1 µM, first compound 0.316 µM) 87.6% | viability, T/C (second compound 1 µM, first compound 1 µM) 68.3%
> 1000 nM: IC50 [2] | IC50 [4] | IC50 [5]
207 nM: IC50 [1]
742 nM: IC50 [3]

Cc1nc(N2CCC3(CC2)COC(C)C3N)c(CO)nc1Sc1ccnc(N)c1Cl (configuration not stated) + CNC(C)C(=O)NC1CN(S(=O)(=O)c2cccc(S(=O)(=O)N3CCC4CCC(C(=O)NC(c5ccccc5)c5ccccc5)N4C(=O)C(NC(=O)C(C)NC)C3)c2)CCC2CCC(C(=O)NC(c3ccccc3)c3ccccc3)N2C1=O
270 nM: IC50 [5]
168 nM: IC50 [1]
237 nM: IC50 [2]
inactive: viability, T/C (second compound 0.01 µM, first compound 0.00949 µM) 90.9% | viability, T/C (second compound 0.01 µM, first compound 0.03 µM) 73.2% | viability, T/C (second compound 0.01 µM, first compound 0.0949 µM) 54% | viability, T/C (second compound 0.01 µM, first compound 0.3 µM) 45.3% | viability, T/C (second compound 0.01 µM, first compound 0.949 µM) 43.4% | viability, T/C (second compound 0.01 µM, first compound 3 µM) 38.7% | viability, T/C (second compound 0.0316 µM, first compound 0.00949 µM) 90.1% | viability, T/C (second compound 0.0316 µM, first compound 0.03 µM) 77% | viability, T/C (second compound 0.0316 µM, first compound 0.0949 µM) 59.3% | viability, T/C (second compound 0.0316 µM, first compound 0.3 µM) 47.3% | viability, T/C (second compound 0.0316 µM, first compound 0.949 µM) 43.1% | viability, T/C (second compound 0.0316 µM, first compound 3 µM) 39.5% | viability, T/C [26] 102% | viability, T/C [27] 91.7% | viability, T/C [28] 60.1% | viability, T/C [29] 46.3% | viability, T/C (second compound 0.1 µM, first compound 0.949 µM) 39.9% | viability, T/C (second compound 0.1 µM, first compound 3 µM) 39.9% | viability, T/C [30] 120% | viability, T/C [31] 107% | viability, T/C [32] 70.3% | viability, T/C [33] 50.4% | viability, T/C (second compound 0.316 µM, first compound 0.949 µM) 41.8% | viability, T/C (second compound 0.316 µM, first compound 3 µM) 38.9% | viability, T/C [34] 114% | viability, T/C [35] 112% | viability, T/C [36] 71.8% | viability, T/C [37] 52.7% | viability, T/C (second compound 1 µM, first compound 0.949 µM) 41.1% | viability, T/C (second compound 1 µM, first compound 3 µM) 38.7%
201 nM: IC50 [3]
277 nM: IC50 [4]

Source: PubChem BioAssay AID1963447 (Molecular Pharmacology Branch, DTP, NCI, 2024)
